{"source": "patent US20220257713A1", "about": "“COMPOUND AND COMPOSITIONS FOR MULTITARGET TREATMENT OF TAU PROTEIN-RELATED DISORDERS” (FONDAZIONE IRCCS ISTITUTO NEUROLOGICO CARLO BESTA, priority 2019, published 2022)", "key": {"APPSwe/PS1DE9": {"tested_on": "APPSwe/PS1DE9", "conditions": "mouse, in vivo, 50 mg/kg", "description": "FIG. 4. Mouse brain distribution of Aβ1-6A2V (D) peptide 2 hours after the last intranasal administration: A) Control and B) Treated Mice. FIG. 5. Effect of Aβ1-6A2V(D) on Aβ oligomer formation in the brain: biochemical assessment. APPSwe/PS1DE9 were treated with Aβ1-6A2V(D) at 50 mg/kg for five months. Control group was treated intranasally with PBS. A: Levels of Aβ aggregates in soluble and insoluble brain fractions after 2.5 months of treatment. B: Levels of Aβ aggregates in soluble and insoluble brain fractions after five months of treatment. * p<0.01; *** p<0.001. FIG. 6. Effect of Aβ1-6A2V(D) on Aβ deposits in mouse brain: neuropathological assessment. A: APPSwe/PS1DE9 were treated with Aβ1-6A2V(D) daily for five months at 50 mg/kg. Control group (CTRL) was treated intranasally with PBS. Amyloid burden measured by plaque count. ** p<0.01; *** p<0,001. B: Immunohistochemistry with the 4G8 anti-Aβ antibody. FIG. 7. Effect of Aβ1-6A2V(D) on synaptopathy. Subcellular fractionation of hippocampal homogenates from mice treated with Aβ1-6A2V(D) (right columns) or PBS (left columns). Western blot analysis with antibodies against synaptic receptors (NMDA-2A, GluN2B, GluA1 and GluA2) and scaffold protein (PSD95). The treatment with Aβ1-6A2V(D) preserved synaptic integrity. […]"}, "[1]": {"conditions": "mouse, in vivo, 16.7 mg/kg", "quoted_text": "FIG. 3. […] Mice were sacrificed 4 (A), 24 (B) and 48 (C) hours after the last administration.\nTo this end, preliminarily wild-type mice were treated once a week for 4 weeks at a dose of 16.7 mg/kg. Animals were sacrificed 4, 24, 48 hours from the last intranasal delivery."}}, "note": "Residues, ends and D or L forms follow the SMILES beside them.", "data": [{"smiles": "CC(C)[C@@H](NC(=O)[C@H](N)CC(=O)O)C(=O)N[C@H](CCC(=O)O)C(=O)N[C@H](Cc1ccccc1)C(=O)N[C@H](CCCNC(=N)N)C(=O)N[C@H](Cc1c[nH]cn1)C(=O)O", "note": "[Aβ1-6A2V(D)] (HELM PEPTIDE1{[dD].[dV].[dE].[dF].[dR].[dH]}$$$$V2.0; N-terminus and C-terminus assumed)", "values": [{"measurement": "Diffusion of the peptide in brain tissue", "setting": "APPSwe/PS1DE9", "result": "consistent diffusion of the peptide in brain tissue"}, {"measurement": "Diffusion of the peptide in brain tissue", "setting": "[1]", "result": "consistent diffusion of the peptide in brain tissue"}, {"measurement": "Presence of the peptide in cerebral cortex 48 hours after last treatment", "setting": "[1]", "result": "can be still observed in the cerebral cortex"}]}]}
